Experimental data taken from PMC11979273, “A phase I study to evaluate the safety, tolerability, and pharmacokinetics of HEC113995PA·H2O, a novel dual-acting serotonergic antidepressant, in healthy subjects” (Frontiers in Pharmacology, 2025).
Like-named read-outs stand apart in the source and are kept apart here.

Assays:
[1] = Food effect study, plasma pharmacokinetics; assay type: in vivo, human; details: for Cmax / MRT / half-life / Vd/F / Tmax: po, 20 mg; for Vd/F: read-out: Vz/F; for Tmax: N = 18, median (min, max)
Excerpt: A total of 18 healthy subjects of both genders, were assigned randomly to three sequences A, B, and C (n = 6). All subjects received HEC113995PA·H2O tablets, with a total of 3 times administered during the trial, once per cycle, and a washout period of ≥11 days. In sequence A, the order of administration was as follows: fasting, after a standard meal, and after a high-fat meal. In sequence B, the order of administration was after a standard meal, after a high-fat meal, and fasting. Sequence C subjects were administered in the following order: after a high-fat meal, fasting, and after a standard meal. During the fed periods, a single oral dose of HEC113995PA·H2O tablet 20 mg was administered within 30 min after consumption of a standard meal (total calories: approximately 600 kcal), or a high-fat, high-calorie meal (total calories: approximately 800 kcal–1,000 kcal, which derives about 150, 250, and 500–600 kcal from protein, carbohydrate, and fat, respectively). Serial blood samples were collected before and after each cycle for PK determination of plasma concentration and the evaluation of pharmacokinetic characteristics. Safety and tolerability were assessed on days 4 and 28.
In the first dose group of single ascending-dose study, PK blood samples were collected at 0.5 h before administration and 0.5, 1, 1.5, 2, 2.5, 3, 4, 5, 6, 8, 10, 12, 24, 36, 48, and 72 h after administration. In other SAD groups, MAD groups and food effect study, PK blood samples were collected at 0.5 h before administration, and 1, 2, 3, 4, 5, 6, 7, 8, 10, 12, 24, 48, 72, 96, 120 and 144 h after administration. Approximately 4 mL of venous blood was obtained from each collection and placed in a vacuum collection vessel containing K2EDTA anticoagulant. The blood was centrifuged and packed according to the instruction provided by the Biological Sample Detection and Analysis Unit. Briefly, all samples were centrifuged at 4°C, 1,500 g for 10 min within 0.5 h after blood collection. After centrifugation, the plasma was aliquoted into two cryogenic storage tubes. The first tube (Tube A) contained at least 0.8 mL of plasma for analytical testing, and the remaining plasma is allocated into the backup tube (Tube B). The plasma samples were stored at −80°C within 1 h after aliquoting for further analysis.
The concentration of HEC113995PA·H2O in human plasma samples (K2EDTA) was quantitatively analyzed using the LC-MS/MS method. Plasma samples (50 μL) were processed using protein precipitation with 5 μL deuterated internal standard (HEC124659) and 100 μL acetonitrile. The Shimadzu LCMS-8060 system coupled with a GL Sciences Inc. InertSustain AQ-C18 HP column (50 × 2.1 mm, 3 μm) achieved chromatographic separation through gradient elution using 0.04% TFA aqueous solution (pH 2.1) and acetonitrile at 0.4 mL/min. ESI-positive mode detection employed optimized parameters: 300°C interface temperature, 250°C DL temperature, 3 L/min nebulizer gas, and 400°C heating block temperature.
Using WinNonlin 7.0 for non-compartmental analysis (NCA), pharmacokinetic (PK) parameters were meticulously calculated based on the actual sampling times for plasma, urine, and fecal samples from each subject post-administration. These parameters encompassed a comprehensive range, including the area under the concentration–time curve (AUC), AUC from time zero (pre-dose) to the time of the last measurable concentration (AUC0-t), and AUC from time zero (pre-dose) to infinity (AUC0-∞). Additionally, maximum observed plasma concentration (Cmax), time to achieve maximum plasma concentration (Tmax), terminal elimination half-life (t1/2), elimination rate constant (Ke), apparent volume of distribution (Vd/F), clearance rate (CL/F), and mean residence time (MRT) were also determined. The AUC0-t and AUC0-∞ values were computed using the linear trapezoidal rule method. Tmax and Cmax were ascertained based on the actual observed data. […]

mice = assay: Behavioral despair models, mice; assay type: in vivo; details: single, multiple, and chronic administrations, unpublished data
[2] = both sexes, human, plasma, single oral 20 mg, fasted, N = 18, mean (SD)
[3] = both sexes, human, plasma, single oral 20 mg, fed with high-fat, high-calorie meal, N = 18, mean (SD)
[4] = both sexes, human, plasma, single oral 20 mg, fed with standard meal, N = 18, mean (SD)
[5] = single 20 mg tablet, fed vs fasted

With `Cc1nc(-c2cnc(N3CCN(CCCc4c[nH]c5ccc(C#N)cc45)CC3)nc2)sc1C(N)=O` [HEC113995PA·H2O] as the compound, how does the Cmax [1, 2] read?
The Cmax was 63 ng/mL.

What about the MRT [1, 2] of the same compound?
Its MRT is 38.3 h.

What about the half-life [1, 2] of the same compound?
Its half-life is 29 h.

What about the Vd/F [1, 2] of the same compound?
The Vd/F was 447 L.

What about the Tmax ([1]; both sexes, human, plasma, single oral 20 mg, fasted) of the same compound?
Its Tmax is 4 h.

And the Cmax [1, 3]?
The Cmax was 117 ng/mL.

What about the MRT [1, 3] of the same compound?
Its MRT is 35.8 h.

What about the half-life [1, 3] of the same compound?
The half-life was 30.5 h.

And the Vd/F [1, 3]?
Its Vd/F is 297 L.

What about the Tmax ([1]; both sexes, human, plasma, single oral 20 mg, fed with high-fat, high-calorie meal) of the same compound?
Its Tmax is 5 h.

What about the Cmax [1, 4] of the same compound?
The Cmax was 106 ng/mL.

And the MRT [1, 4]?
Its MRT is 35.4 h.

What about the half-life [1, 4] of the same compound?
The half-life was 29.5 h.

And the Vd/F [1, 4]?
Its Vd/F is 298 L.

And the Tmax ([1]; both sexes, human, plasma, single oral 20 mg, fed with standard meal)?
Its Tmax is 5 h.

And the AUC(0-inf) [1, 2]?
Its AUC(0-inf) is 1960 ng·h/mL.

What about the AUC(0-t) [1, 2] of the same compound?
Its AUC(0-t) is 1860 ng·h/mL.

What about the “food effect, increases in exposure parameters” value ([1]; discussion summary) of the same compound?
The value was 52%–93.

What about the “food impact on Tmax and t1/2” value ([1]; single 20 mg tablet) of the same compound?
The value was “no significant impacts”.

And the “increase of AUC0-∞ by food intake” value [1, 5]?
Its value is 52.15∼58.20%.

What about the “increase of Cmax by food intake” value [1, 5] of the same compound?
Its value is 77.09∼93.45%.

What about the “increase of AUC0-∞, high-fat meal vs standard meal” value ([1]; single 20 mg tablet, P > 0.05) of the same compound?
Its value is 3.97%.

And the “increase of Cmax, high-fat meal vs standard meal” value ([1]; single 20 mg tablet, P > 0.05)?
Its value is 9.24%.

What about the CL/F ([1]; single oral 20 mg, fasted, N = 18, mean (SD)) of the same compound?
Its CL/F is 10.8 (2.5) L/h.

What about the CL/F ([1]; single oral 20 mg, fed with high-fat, high-calorie meal, N = 18, mean (SD)) of the same compound?
The CL/F was 6.8 (1.5) L/h.

What about the CL/F ([1]; single oral 20 mg, fed with standard meal, N = 18, mean (SD)) of the same compound?
Its CL/F is 7.1 (1.6) L/h.

What about the duration of immobility (mice) of the same compound?
Its duration of immobility is “significantly reduce”.
